Experimental data taken from patent EP4796538A1, “NOVEL QUINOXALINE COMPOUNDS, MANUFACTURING METHOD THEREOF, AND USES THEREOF” (Gachon University of Industry-Academic Cooperation …, priority 2023, dated 2025).
Like-named read-outs stand apart in the source and are kept apart here.

How the values were obtained:
RET (G810S/M918T) = molecular target: T1, RET (G810S/M918T) (Homo sapiens, UniProt P07949, G810S/M918T); test: Kinase panel inhibition, radiolabeled [γ-33P] ATP (Reaction Biology Corp); format: biochemical; conditions: compound at 30uM, ATP 1 µM
T1 construct: purchased Reaction Biology Corp

RET-CCDC6 (PTC1) = molecular target: T2, RET-CCDC6 (PTC1) (Homo sapiens, UniProt P07949); test: as above; format: biochemical; conditions: compound at 30uM, ATP 1 µM
T2 construct: purchased Reaction Biology Corp

[1] = Data 1, read-out: % Enzyme Activity (relative to DMSO controls) RET (G810S/M918T) Data 1
[2] = Data 2, read-out: % Enzyme Activity (relative to DMSO controls) RET (G810S/M918T) Data 2
[3] = Data 1, read-out: % Enzyme Activity (relative to DMSO controls) RET-CCDC6 (PTC1) Data 1
[4] = Data 2, read-out: % Enzyme Activity (relative to DMSO controls) RET-CCDC6 (PTC1) Data 2

T1 sequence (P07949 29-1114 G810S/M918T): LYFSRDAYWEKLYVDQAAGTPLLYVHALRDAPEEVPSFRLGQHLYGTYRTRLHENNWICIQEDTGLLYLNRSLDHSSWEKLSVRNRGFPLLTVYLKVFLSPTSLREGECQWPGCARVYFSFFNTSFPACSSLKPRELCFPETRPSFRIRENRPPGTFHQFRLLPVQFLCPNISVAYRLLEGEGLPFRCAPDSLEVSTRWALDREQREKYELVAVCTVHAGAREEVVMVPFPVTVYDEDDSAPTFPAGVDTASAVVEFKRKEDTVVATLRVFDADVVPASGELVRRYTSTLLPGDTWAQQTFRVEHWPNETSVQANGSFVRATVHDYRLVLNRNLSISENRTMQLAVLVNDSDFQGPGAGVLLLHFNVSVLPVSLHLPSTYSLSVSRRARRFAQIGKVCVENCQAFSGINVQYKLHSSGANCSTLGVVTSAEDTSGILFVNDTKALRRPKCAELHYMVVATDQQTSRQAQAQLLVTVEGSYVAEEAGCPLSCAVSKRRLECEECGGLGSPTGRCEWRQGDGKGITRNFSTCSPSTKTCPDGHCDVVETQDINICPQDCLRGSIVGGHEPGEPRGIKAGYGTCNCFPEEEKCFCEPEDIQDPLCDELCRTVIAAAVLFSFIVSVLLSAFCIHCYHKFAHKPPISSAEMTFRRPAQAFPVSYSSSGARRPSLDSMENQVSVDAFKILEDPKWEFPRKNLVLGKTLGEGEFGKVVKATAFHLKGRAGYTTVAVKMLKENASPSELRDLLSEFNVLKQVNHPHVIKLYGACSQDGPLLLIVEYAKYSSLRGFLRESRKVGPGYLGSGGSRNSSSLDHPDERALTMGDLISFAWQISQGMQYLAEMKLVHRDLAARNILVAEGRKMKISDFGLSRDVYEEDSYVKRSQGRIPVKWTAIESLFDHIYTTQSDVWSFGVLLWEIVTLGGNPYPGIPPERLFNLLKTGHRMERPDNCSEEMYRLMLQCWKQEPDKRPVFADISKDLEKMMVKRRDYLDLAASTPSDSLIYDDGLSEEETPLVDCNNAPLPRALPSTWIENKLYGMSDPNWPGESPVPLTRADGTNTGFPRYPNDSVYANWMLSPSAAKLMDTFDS
T2 sequence (P07949 whole entry, looked up): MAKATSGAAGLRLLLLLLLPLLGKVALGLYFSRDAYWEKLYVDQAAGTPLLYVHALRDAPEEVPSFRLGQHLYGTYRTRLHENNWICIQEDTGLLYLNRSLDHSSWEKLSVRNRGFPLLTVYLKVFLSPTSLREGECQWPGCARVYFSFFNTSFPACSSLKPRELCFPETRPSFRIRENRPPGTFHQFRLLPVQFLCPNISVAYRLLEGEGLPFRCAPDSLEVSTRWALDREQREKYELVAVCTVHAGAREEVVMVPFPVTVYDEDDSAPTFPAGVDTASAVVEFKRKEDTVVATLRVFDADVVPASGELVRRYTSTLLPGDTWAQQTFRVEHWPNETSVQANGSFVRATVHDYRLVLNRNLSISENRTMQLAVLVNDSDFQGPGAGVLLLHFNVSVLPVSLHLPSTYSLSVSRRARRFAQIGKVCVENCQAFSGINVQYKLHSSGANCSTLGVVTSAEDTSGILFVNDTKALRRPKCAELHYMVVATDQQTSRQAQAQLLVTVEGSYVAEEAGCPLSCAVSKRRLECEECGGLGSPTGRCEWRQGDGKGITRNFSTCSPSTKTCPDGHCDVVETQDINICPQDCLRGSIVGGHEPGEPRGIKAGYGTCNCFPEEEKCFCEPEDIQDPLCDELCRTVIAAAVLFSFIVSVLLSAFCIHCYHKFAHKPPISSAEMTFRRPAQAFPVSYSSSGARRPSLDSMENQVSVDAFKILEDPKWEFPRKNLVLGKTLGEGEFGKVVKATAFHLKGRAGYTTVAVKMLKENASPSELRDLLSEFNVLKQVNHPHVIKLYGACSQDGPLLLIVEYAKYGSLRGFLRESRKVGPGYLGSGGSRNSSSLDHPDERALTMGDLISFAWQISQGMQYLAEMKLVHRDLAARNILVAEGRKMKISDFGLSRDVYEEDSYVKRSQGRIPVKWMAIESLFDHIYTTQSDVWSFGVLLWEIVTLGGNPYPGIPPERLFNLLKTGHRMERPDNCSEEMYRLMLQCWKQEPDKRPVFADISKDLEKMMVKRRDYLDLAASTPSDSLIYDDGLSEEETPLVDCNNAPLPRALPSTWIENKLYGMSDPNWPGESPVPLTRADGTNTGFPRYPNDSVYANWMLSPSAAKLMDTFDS

| remaining activity at 30 µM (RET (G810S/M918T); [1]) | remaining activity at 30 µM (RET (G810S/M918T); [2]) | remaining activity at 30 µM (RET-CCDC6 (PTC1); [3]) | remaining activity at 30 µM (RET-CCDC6 (PTC1); [4]) | SMILES |
| --- | --- | --- | --- | --- |
| 24.8% | 25.3% | – | – | CCCCNc1cc(-c2ccc(F)nc2)c2nccnc2c1 [Intermediate Compound 9, N-butyl-8-(6-fluoropyridin-3-yl)quinoxalin-6-amine] |
| 100% | 96.4% | – | – | O=C(Nc1cc(Br)c2nccnc2c1)c1ccccn1 [Intermediate Compound 12, N-(8-Bromoquinoxalin-6-yl)picolinamide] |
| 27.6% | 28.3% | – | – | CCCNc1cc(Br)c2nccnc2c1 [Intermediate Compound 19, 8-Bromo-N-propylquinoxalin-6-amine] |
| 20.8% | 21.7% | – | – | CCCCNc1cc(Br)c2nccnc2c1 [Intermediate Compound 21, 8-Bromo-N-butylquinoxalin-6-amine] |
| 40.8% | 39.1% | 13.2% | 13.3% | Nc1cc(-c2cnc(Cl)nc2)c2nccnc2c1 [Intermediate Compound 16, 8-(2-chloropyrimidin-5-yl)quinoxalin-6-amine] |
| 66.5% | 68.4% | 7.38% | 7.71% | CC(C)Nc1cc(-c2ccc(F)nc2)c2nccnc2c1 [Intermediate Compound 8, 8-(6-fluoropyridin-3-yl)-N-isopropylquin oxalin-6-amine] |
| 69.1% | 73.1% | 7.86% | 7.51% | CC(C)Nc1cc(Br)c2nccnc2c1 [Intermediate Compound 20, 8-Bromo-N-isopropylquin oxalin-6-amine] |
| 49.4% | 48.9% | – | – | CC(C)CNc1cc(Br)c2nccnc2c1 [Intermediate Compound 22, 8-Bromo-N-isobutylquino xalin-6-amine] |
| 92.5% | 92.5% | – | – | O=C(Nc1cc(-c2ccc(F)nc2)c2nccnc2c1)c1ccccn1 [Intermediate Compound 14, N-(8-(6-Fluoropyridin-3-yl)quinoxalin-6-yl)picolinamide] |
| 24% | 22.3% | – | – | CCCNc1cc(-c2ccc(F)nc2)c2nccnc2c1 [Intermediate Compound 7] |
| 43.1% | 40.1% | – | – | CC(C)CNc1cc(-c2ccc(F)nc2)c2nccnc2c1 [Intermediate Compound 10, 8-(6-Fluoropyridin-3-yl)-N-isobutylquinoxalin-6-amine] |
| 13.3% | 14.4% | 5.67% | 3.67% | CNc1cc(-c2ccc(F)nc2)c2nccnc2c1 [Intermediate Compound 5, 8-(6-fluoropyridin-3-yl)-N-methylquinoxalin-6-amine] |
| 53.5% | 54.1% | 20.9% | 19.4% | Nc1cc(-c2ccc(F)nc2)c2nccnc2c1 [Intermediate Compound 4, 8-(6-fluoropyridin-3-yl)quinoxalin-6-amine] |
